From US20120022045A1, “BRIDGED COMPOUNDS AS HIV INTEGRASE INHIBITORS” (priority 2009, published 2012)
Like-named read-outs stand apart in the source and are kept apart here.

Assays:
Assay type in all cases: cell-based
[1] = tested on: HIV-1 integrase mutant virus Y143R; assay: Single cycle infectivity assay in HeLa P4-2 cells, integrase mutant Y143R virus; conditions: fold shift in IC50 versus wild type IIIB
Protocol: (§1) An assay for measuring the inhibition of acute HIV-1 infection with HeLa P4-2 cells in a single cycle infectivity assay was conducted using methods described in Joyce et al., J. Biol. Chem. 2002, 277: 45811, Hazuda et al., Science 2000, 287: 646, and Kimpton et al, J. Virol. 1992, 66: 2232. Proviral plasmids encoding viruses containing specific mutations in the integrase gene (N155H, Q148R, Y143R, E92Q, or G140S/Q148H) were generated by site-directed mutagenesis, and viruses were produced by transfecting 293T cells with the appropriate proviral plasmids.

[2] = tested on: HIV-1 integrase mutant virus Q148R; assay: Single cycle infectivity assay in HeLa P4-2 cells, integrase mutant Q148R virus; conditions: fold shift in IC50 versus wild type IIIB
Protocol: as §1

[3] = tested on: HIV-1 integrase mutant virus N155H; assay: Single cycle infectivity assay in HeLa P4-2 cells, integrase mutant N155H virus; conditions: fold shift in IC50 versus wild type IIIB
Protocol: as §1

HIV-1 = assay: Inhibition of acute HIV-1 infection of T-lymphoid cells (spread assay); conditions: 10% FBS, read-out: IC95 (nM) in the presence of 10% FBS
Protocol: Assays for the inhibition of acute HIV-1 infection of T-lymphoid cells were conducted in accordance with Vacca, J. P. et al., Proc. Natl. Acad. Sci. USA 1994, 91: 4096.

HIV-1 wild type IIIB = assay: Single cycle infectivity assay in HeLa P4-2 cells, wild type virus
Protocol: as §1

[4] = tested on: HIV-1 integrase mutant virus G140S/Q148H; assay: Single cycle infectivity assay in HeLa P4-2 cells, integrase mutant G140S/Q148H virus; conditions: fold shift in IC50 versus wild type IIIB
Protocol: as §1

[5] = Human immunodeficiency virus 1, T-lymphoid
[6] = Human immunodeficiency virus 1, IIIB, HeLaP4-2, wild type IIIB

SMILES | Y143R (shift) [1] [fold] | Q148R (shift) [2] [fold] | N155H (shift) [3] [fold] | IC95 (HIV-1) [nM] | IC50 (HIV-1 wild type IIIB; wild type IIIB) [nM] | G140S/Q148H (shift) [4] [fold] | IC95 (HIV-1; [5]) [nM] | IC50 (HIV-1 wild type IIIB; [6]) [nM]
CCC1C2CCC(NC(=O)C(=O)N(C)C)(CO2)c2nc(C(=O)NCc3ccc(F)cc3)c(O)c(=O)n21 (single isomer, unassigned) [Example 26A, N′-(8-ethyl-4-{[(4-fluorobenzyl)amino]carbonyl}-5-hydroxy-6-oxo-10-oxa-3,7-diazatricyclo[7.2.2.0^2,7]trideca-2,4-dien-1-yl)-N-dimethylethanediamide] | 2 | 9 | 9 | 16.0 | 24 | >70 |  | 
CCN(C(=O)C(=O)N(C)C)C12CCC(OC)(CC1)Cn1c2nc(C(=O)NCc2ccc(F)cc2)c(O)c1=O [Example 16, N-Ethyl-N-(4-{[(4-fluorobenzyl)amino]carbonyl}-5-hydroxy-9-methoxy-6-oxo-3,7-diazatricyclo[7.2.2.0^2,7]trideca-2,4-dien-1-yl)-N,N′-dimethylethanediamide] | 1 | 1 | 3 |  |  | 15 | 11.3 | 15
CCC12CCC(N(C)C(=O)C(=O)N(C)C)(CO1)c1nc(C(=O)NCc3ccc(F)cc3)c(O)c(=O)n1C2 (single isomer, unassigned) [Example 20A, N-(9-ethyl-4-{[(4-fluorolbenzyl)amino]carbonyl}-5-hydroxy-6-oxo-10-oxa-3,7-diazatricyclo[7.2.2.0^2,7]trideca-2,4-dien-1-yl)-N,N′,N′-trimethylethanediamide] | 1 | 2 | 3 |  | 8 | 21 | 11 | 
Cc1nnc(C(=O)N(C)C23CCC(Cn4c2nc(C(=O)NCc2ccc(F)cc2)c(O)c4=O)C3)o1 (stereo not drawn) [Example 7, N-(4-Fluorobenzyl)-3-hydroxy-10-{methyl[(5-methyl-1,3,4-oxadiazol-2-yl)carbonyl]amino}-4-oxo-4,6,7,8,9,10-hexahydro-7,10-methanopyrimido[1,2-a]azepine-2-carboxamide] | 2 | 4 | 3 |  |  | 44 | 9.6 | 80
CCC1C2CCC(N(C)C(=O)C(=O)N(C)C)(CO2)c2nc(C(=O)NCc3ccc(F)cc3)c(O)c(=O)n21 (single isomer, unassigned) [Example 25A, N-(8-ethyl-4-{[(4-fluorobenzyl)amino]carbonyl}-5-hydroxy-6-oxo-10-oxa-3,7-diazatricyclo[7.2.2.0^2,7]trideca-2,4-dien-1-yl)-N,N′,N′-trimethylethanediamide] | 7 | 1 | 1 |  | 14 | 1 | 6.3 | 
CCC1C2CCC(N(C)C(=O)C(=O)N(C)C)(CO2)c2nc(C(=O)NCc3ccc(F)cc3)c(O)c(=O)n21 (single isomer, unassigned) [Example 25C, N-(8-ethyl-4-{[(4-fluorobenzyl)amino]carbonyl}-5-hydroxy-6-oxo-10-oxa-3,7-diazatricyclo[7.2.2.0^2,7]trideca-2,4-dien-1-yl)-N,N′,N′-trimethylethanediamide] | 3 | 4 | 6 | 10.8 | 6 | 88 |  | 
CCN(C(=O)C(=O)N(C)C)C12CCC(Cn3c1nc(C(=O)NCc1ccc(F)c(C)c1)c(O)c3=O)OC2 (stereo not drawn) [Example 18A, N-ethyl-N-(4-{[(4-fluoro-3-methylbenzyl)amino]carbonyl}-5-hydroxy-6-oxo-10-oxa-3,7-diazatricyclo[7.2.2.0^2,7]trideca-2,4-dien-1-yl)-N,N-dimethylethanediamide] | 2 | 7 | 8 |  |  | >88 | 9.8 | 19
CN(C)C(=O)C(=O)N(C)C12CCC(Cn3c1nc(C(=O)NCc1ccc(F)cc1)c(O)c3=O)OC2 (single isomer, unassigned) [Example 23B] | 7 | 253 | 136 | 23.6 | 5 | 229 |  | 
CNC(=O)C(=O)N(C)C12CCC(OC1)C(C)n1c2nc(C(=O)NCc2ccc(F)cc2)c(O)c1=O (single isomer, unassigned) [Example 28A, N-(4-{[(4-fluorobenzyl)amino]carbonyl}-5-hydroxy-8-methyl-6-oxo-10-oxa-3,7-diazatricyclo[7.2.2.0^2,7]trideca-2,4-dien-1-yl)-N,N′-dimethylethanediamide] | 1 | 1 | 3 |  |  | 4 | 17.8 | 46
CC1C2CCC(NC(=O)C(=O)N(C)C)(CO2)c2nc(C(=O)NCc3ccc(F)cc3)c(O)c(=O)n21 (single isomer, unassigned) [Example 29C, N′-(4-{[(4-Fluorobenzyl)amino]carbonyl}-5-hydroxy-8-methyl-6-oxo-10-oxa-3,7-diazatricyclo[7.2.2.0^2,7]trideca-2,4-dien-1-yl)-N-dimethylethanediamide] | 3 | 8 | 17 | 47.8 | 20 | 81 |  | 
COC12CCC(N(C)C(=O)C(=O)N(C)C)(CC1)c1nc(C(=O)NCc3ccc(F)cc3)c(O)c(=O)n1C2 [Example 15, N-(4-{[(4-Fluorobenzyl)amino]carbonyl}-5-hydroxy-9-methoxy-6-oxo-3,7-diazatricyclo[7.2.2.0^2,7]trideca-2,4-dien-1-yl)-N,N′,N′-trimethylethanediamide] | 1 | 1 | 2 |  |  | 9 | 9.5 | 23
CC1C2CCC(N(C)C(=O)C(=O)N(C)C)(CO2)c2nc(C(=O)NCc3ccc(F)cc3)c(O)c(=O)n21 (single isomer, unassigned) [Example 27A, N-(4-{[(4-fluorobenzyl)amino]carbonyl}-5-hydroxy-8-methyl-6-oxo-10-oxa-3,7-diazatricyclo[7.2.2.0^2,7]trideca-2,4-dien-1-yl)-N,N′,N′-trimethylethanediamide] | 1 | 1 | 1 | 7.5 | 20 | 2 |  | 
CN(C)C(=O)C(=O)N(C)C12CCC(O)(CC1)Cn1c2nc(C(=O)NCc2ccc(F)cc2)c(O)c1=O [Example 17, N-(4-{[(4-Fluorobenzyl)amino]carbonyl}-5,9-dihydroxy-6-oxo-3,7-diazatricyclo[7.2.2.0^2,7]trideca-2,4-dien-1-yl)-N,N′,N′-trimethylethanediamide] | 1 | 3 | 3 |  |  | 38 | 20.5 | 46
CCCN(C(=O)C(=O)N(C)C)C12CCC(Cn3c1nc(C(=O)NCc1ccc(F)cc1)c(O)c3=O)OC2 (stereo not drawn) [Example 19, N-(4-{[(4-fluorolbenzyl)amino]carbonyl}-5-hydroxy-6-oxo-10-oxa-3,7-diazatricyclo[7.2.2.0^2,7]trideca-2,4-dien-1-yl)-N′,N′-dimethyl-N-propylethanediamide] | 7 | 59 | 45 |  |  | >209 | 15.9 | 8
CN(C)C(=O)C(=O)N(C)C12CCC(Cn3c1nc(C(=O)NCc1ccc(F)cc1)c(O)c3=O)C2 (stereo not drawn) [Example 8] | 13 | 18 | 16 |  |  | 110 | 9.2 | 13
CN(C)C(=O)C(=O)N(C)C12CCC(C)(Cn3c1nc(C(=O)NCc1ccc(F)cc1)c(O)c3=O)OC2 (single isomer, unassigned) [Example 21A] | 1 | 3 | 3 |  |  | 73 | 20 | 20
CN(C)C(=O)C(=O)N(C)C12CCC(C)(Cn3c1nc(C(=O)NCc1ccc(F)cc1)c(O)c3=O)OC2 (single isomer, unassigned) [Example 21B] | 3 | 11 | 13 | 21.0 | 18 | >93 |  | 
CN(C)C(=O)C(=O)N(C)C12CCC(Cn3c1nc(C(=O)NCc1ccc(F)cc1)c(O)c3=O)OC2 (single isomer, unassigned) [Example 23A] | 1 | 6 | 7 | 16.7 | 21 | 84 |  | 
